Results as given in patent publication US20240245711A1, “A 19-NOR C3,3-DISUBSTITUTED C21-N-PYRAZOLYL STEROID FOR THE TREATMENT OF MAJOR DEPRESSIVE DISORDER” (Sage Therapeutics, Inc., priority 2021, published 2024).

System: patients with MDD and metabolic comorbidities
Experiment: Post hoc analysis of the Example 1 study: patients with MDD and metabolic comorbidities
Type: in vivo, human
Procedure: Patients with MDD who have metabolic comorbidities face additional adverse events associated with antidepressants (e.g., weight gain, metabolic abnormalities) and often respond poorly. This example presents results from a post hoc analysis of clinical study of Example 1 in patients with MDD and metabolic comorbidities.
The clinical study of Example 1 enrolled patients with MDD, aged 18-75 years, with HAMD-17 score ≥20 and a MADRS total score ≥28 to 1 of 2 cohorts: 30 mg Cohort and 50 mg Cohort. HAMD-17 responders (≥50% reduction from baseline) at Day 15 continued in study and were assessed for retreatment eligibility.
Patients with a metabolic comorbidity were identified by the following coded terms in patient history: obesity, hyperlipidemia, hypercholesterolemia, type-2 diabetes mellitus, type-1 diabetes mellitus, glucose tolerance impaired, hypertriglyceridemia, dyslipidemia, metabolic syndrome, and/or diabetic dyslipidemia.

[1] = Day 15 of first treatment cycle, metabolic comorbidities subpopulation
[2] = metabolic comorbidities subpopulation

C[C@@]1(O)CC[C@H]2[C@H](CC[C@@H]3[C@@H]2CC[C@]2(C)[C@@H](C(=O)Cn4cc(C#N)cn4)CC[C@@H]32)C1 [Compound (1), 1-(2-((3R,5R,8R,9R,10S,13S,14S,17S)-3-hydroxy-3,13-dimethylhexadecahydro-1H-cyclopenta[a]phenanthren-17-yl)-2-oxoethyl)-1H-pyrazole-4-carbonitrile] was tested, and the “Patients not requiring additional treatment courses during their time in the study” value (161/253 who responded to and completed the first treatment cycle) was 55.9%, the HAMD-17 remission rate [1] was 37.1% and the HAMD-17 response rate [1] was 67.3%. The “Mean (SD) CFB in HAMD-17” value [1] was −14.8 (7.10), the TEAE diarrhea [2] was 6.7% and the TEAE dizziness [2] was 9.1%. The TEAE dry mouth [2] was 5.5%, the TEAE headache [2] was 14.2% and the TEAE sedation [2] was 5.1%. The TEAE somnolence [2] was 13.8%, the “TEAE upper respiratory infection” value [2] was 5.9% and the “TEAEs leading to discontinuation of study drug” value (metabolic comorbidities subpopulation (8/253)) was 3.2%. For the same molecule, the “TEAEs leading to withdrawal from the study” value (metabolic comorbidities subpopulation (11/253)) was 4.3%, the “TEAEs leading to dose reduction” value (metabolic comorbidities subpopulation (19/253)) was 7.5% and the “Share of patients with TEAEs that were mild/moderate” value (metabolic comorbidities subpopulation (148/167)) was 88.6%. The “Patients with ≥1 TEAE over the study duration” value (metabolic comorbidities subpopulation (167/253)) was 66.0%, the “Mean (range) number of total treatment courses” value (metabolic comorbidities subpopulation, first-cycle responders) was 1.9 (1-5) and the Tolerability (patients with MDD and metabolic comorbidities) was “generally well tolerated”.
